Several values for one entry are separate records, joined by “and”; a condition that tells them apart may be missing. Identical values can stand only once.
Assays:
Format in all cases: functional
Mus musculus [1] = test: Antihypoxic effect by the survival time (SVT) in mice at a dose of 30 mg/kg administered intraperitoneally.; conditions: route intraperitoneal
Mus musculus [2] = test: Time of recovery of righting reflux (RRT) in seconds was measured after oral administration of 30 mg/kg in mice for the promotional effect on recovery from coma.
Mus musculus [3] = test: Antihypoxic effect tested by the ratio of survival time (SVT) of test mice to that of control group, dosed intraperitoneally at 30 mg/kg; conditions: route intraperitoneal
Mus musculus [4] = test: Antihypoxic effect tested by the ratio of survival time (SVT) of test mice to that of control group, dosed orally 30 mg/kg; conditions: route oral
Mus musculus [5] = test: Spontaneous movement (SMT) in seconds, was measured after oral administration of 30 mg/kg in mice to test for promoting effects on recovery from coma.
Mus musculus [6] = test: Time of recovery of spontaneous movement (SMT) in seconds was measured after administration of 100 mg/kg orally in mice for the promotional effect on recovery from coma.; conditions: route oral
Mus musculus [7] = test: Antihypoxic effect by the survival time (SVT) in mice at a dose of 100 mg/kg administered orally.
Mus musculus [8] = test: Antihypoxic effect by the survival time (SVT) in mice at a dose of 10 mg/kg administered intraperitoneally.; conditions: route intraperitoneal
Mus musculus [9] = test: Time of recovery of righting reflux (RRT) in seconds was measured after administration of 100 mg/kg orally in mice for the promotional effect on recovery from coma.; conditions: route oral
Mus musculus [10] = test: Time of recovery of righting reflux (RRT) in seconds was measured after intraperitoneal administration of 30 mg/kg in mice for the promotional effect on recovery from coma.
Mus musculus [11] = test: Antihypoxic effect by the survival time (SVT) in mice at a dose of 100 mg/kg administered intraperitoneally.; conditions: route intraperitoneal
Mus musculus [12] = test: Time of recovery of righting reflux (RRT) in seconds was measured after intraperitoneal administration of 100 mg/kg in mice for the promotional effect on recovery from coma.
Mus musculus [13] = test: Time of recovery of spontaneous movement (SMT) in seconds was measured after intraperitoneal administration of 30 mg/kg in mice for the promotional effect on recovery from coma.
Mus musculus [14] = test: Time of recovery of righting reflux (RRT) in seconds was measured after intraperitoneal administration of 10 mg/kg in mice for the promotional effect on recovery from coma.
Mus musculus [15] = test: Antihypoxic effect by the ratio of survival time (SVT) of test mice to that of control group at a dose of 30 mg/kg administered subcutaneously.; conditions: route subcutaneous
Mus musculus [16] = test: Time of recovery of righting reflux (RRT) in seconds was measured after administration of 30 mg/kg intraperitoneally in mice for the promotional effect on recovery from coma.; conditions: route intraperitoneal
Mus musculus [17] = test: Time of recovery of righting reflux (RRT) in seconds was measured after administration of 40 mg/kg orally in mice for the promotional effect on recovery from coma.; conditions: route oral
Mus musculus [18] = test: Time of recovery of righting reflux (RRT) in seconds was measured after administration of 10 mg/kg intraperitoneally in mice for the promotional effect on recovery from coma.; conditions: route intraperitoneal
Mus musculus [19] = test: Time of recovery of spontaneous movement (SMT) in seconds was measured after administration of 30 mg/kg intraperitoneally in mice for the promotional effect on recovery from coma.; conditions: route intraperitoneal
Mus musculus [20] = test: Antihypoxic effect by the ratio of survival time (SVT) of test mice to that of control group at a dose of 20 mg/kg administered intraperitoneally.; conditions: route intraperitoneal
Mus musculus [21] = test: Time of recovery of righting reflux (RRT) in seconds was measured after administration of 100 mg/kg intraperitoneally in mice for the promotional effect on recovery from coma.; conditions: route intraperitoneal
Mus musculus [22] = test: Time of recovery of spontaneous movement (SMT) in seconds was measured after administration of 10 mg/kg intraperitoneally in mice for the promotional effect on recovery from coma.; conditions: route intraperitoneal
Mus musculus [23] = test: Antihypoxic effect by the ratio of survival time (SVT) of test mice to that of control group at a dose of 40 mg/kg administered intraperitoneally.; conditions: route intraperitoneal
Mus musculus [24] = test: Compound was tested for the anesthetic effect and the sleeping time (ST) was recorded at a dose of 10 mg/kg administered intraperitoneally.; conditions: route intraperitoneal
Mus musculus [25] = test: Time of recovery of spontaneous movement (SMT) in seconds was measured after administration of 100 mg/kg intraperitoneally in mice for the promotional effect on recovery from coma.; conditions: route intraperitoneal
Mus musculus [26] = test: Antihypoxic effect by the ratio of survival time (SVT) of test mice to that of control group at a dose of 10 mg/kg administered intraperitoneally.; conditions: route intraperitoneal
Mus musculus [27] = test: Time of recovery of spontaneous movement (SMT) in seconds was measured after administration of 40 mg/kg orally in mice for the promotional effect on recovery from coma.; conditions: route oral
Mus musculus [28] = test: Antihypoxic effect by the survival time (SVT) in mice at a dose of 30 mg/kg administered orally.
Mus musculus [29] = test: Antihypoxic effect by the ratio of survival time (SVT) of test mice to that of control group at a dose of 100 mg/kg administered intraperitoneally.; conditions: route intraperitoneal

`Cc1cc(C)c2c(c1O)C(NC(=O)CCl)CC2` (stereo not given) was tested, and the SVT (Mus musculus [1]) was 116.4%.

`CCC(C)c1cc(C)c2c(c1O)C(NC(=O)CN1CCN(c3cccc(C)c3)CC1)CC2` (stereo not given) showed an RRT (Mus musculus [2]) of 91.9 s, an SVT (Mus musculus [3]) of 172.2% and an SVT (Mus musculus [4]) of 110.5%. It also gave an SMT (Mus musculus [5]) of 125.1 s.

With `CCCCCCCCCCC(=O)NC1CCc2c(C)cc(C)c(O)c21` (stereo not given) the SVT (Mus musculus [1]) was 94.5%.

Work on `Cc1cc(C(C)(C)C)c(O)c(C(C)(C)C)c1` [BUTYLATED HYDROXYTOLUENE] yielded an SMT (Mus musculus [6]) of 80.9 s, an SVT (Mus musculus [7]) of 87.6% and an SVT (Mus musculus [8]) of 140.3%. It also gave an RRT (Mus musculus [9]) of 69.6 s, an RRT (Mus musculus [10]) of 74.5 s and an SVT (Mus musculus [1]) of 109.4%. For the same compound, the SVT (Mus musculus [11]) was 358.8% and 583.9%, the RRT (Mus musculus [12]) was 98.7 s and the SMT (Mus musculus [13]) was 110.4 s and 114.7 s and 115.7 s. The RRT (Mus musculus [14]) was 96.4 s.

`CCC(C)c1cc(C)c2c(c1O)C(N)CC2` (stereo not given) showed an SVT (Mus musculus [15]) of 276.5%, an RRT (Mus musculus [2]) of 44.2 s and an SVT (Mus musculus [4]) of 166.5%. For the same compound, the SMT (Mus musculus [5]) was 48.9 s.

`CCCC(C)C1(CC)C(=O)N=C([O-])NC1=O.[Na+]` (stereo not given) [PENTOBARBITAL SODIUM] was tested, and the RRT (Mus musculus [16]) was 494 s, the RRT (Mus musculus [17]) was 494 s and the RRT (Mus musculus [18]) was 175.5 s. It also gave an SMT (Mus musculus [19]) of 283 s, an SVT (Mus musculus [20]) of 218.5% and an RRT (Mus musculus [21]) of 494 s. For the same compound, the SMT (Mus musculus [22]) was 176.3 s, the SVT (Mus musculus [23]) was 306.7% and 443.6% and the ST (Mus musculus [24]) was 133 s. For the same compound, the SMT (Mus musculus [25]) was 283 s, the SVT (Mus musculus [26]) was 134.9% and the SMT (Mus musculus [27]) was 283 s.

`Cc1cc(C)c2c(c1O)C(NC(=O)CN1CCN(c3cccc(Cl)c3)CC1)CC2` (stereo not given) gave an SVT (Mus musculus [28]) of 99.2%, an RRT (Mus musculus [2]) of 72.1 s and an SVT (Mus musculus [29]) of 168.9%. The SMT (Mus musculus [5]) was 77.4 s.

In the case of `CCC(C)c1cc(C)c2c(c1O)C(NC(=O)CN1CCN(c3cccc(Cl)c3Cl)CC1)CC2` (stereo not given), the RRT (Mus musculus [2]) is reported as 98 s, the SVT (Mus musculus [3]) is reported as 122.4% and the SVT (Mus musculus [4]) is reported as 119.2%. The SMT (Mus musculus [5]) was 117.4 s.

— ChEMBL document CHEMBL1125278, “Novel cerebroprotective agents with central nervous system stimulating activity. 2. Synthesis and pharmacology of the 1-(acylamino)-7-hydroxyindan derivatives” (1991)
